“Also recorded” adds a separate entry of the source.
Columns and labels:
ERK = experiment: Effect of 6D6-1 on ERK and PEA-15 subcellular location in primary astrocyte cultures (confocal microscopy); type: cell-based, mouse; conditions: primary astrocytes, 24 hours without serum; 50 μM 6D6-1 for 2 hours 15 minutes
Description: Primary astrocyte cultures were prepared from cortex and striatum of mouse embryos (day 16) as described by ARAUJO et al. (J. Biol. Chem., 1993, 268: 5911).
The primary astrocyte cultures were maintained for 24 hours in the absence of serum, a condition known to induce a mainly cytoplasmic location of ERK.
The cells were then treated or not with 50 μM of the 6D6-1 compound for 2 hours 15 minutes.
The subcellular location of ERK and PEA-15 was observed by confocal microscopy after labeling the cells with fluorescent antibodies.
The cells were washed twice with PBS (Dulbecco phosphate saline buffer, without CaCl2 nor MgCl2, Sigma), and fixed with 4% paraformaldehyde in PBS (pH 7.5), for 15 minutes, then washed twice with PBS comprising 0.1 M of glycine, at ambient temperature.
Then, the cells were incubated for 5 minutes in PBS containing 0.2% of X-100 triton.
The non-specific sites were blocked with PBS containing 10% of normal goat serum (NGS) for one hour at ambient temperature.
Then the cells were incubated overnight at 4° C. with PEA-15 specific antibodies (rabbit polyclonal antibody, Sharif et al., Neuroscience, 2004) or ERK specific antibodies (rabbit polyclonal antibody, Santa Cruz K-23 (ref. Sc-94)), diluted in PBS containing 1.5% of NGS. […]

[1] = biological target: T1, GST-PEA-15 fusion protein (Mus musculus, UniProt Q62048); experiment: 6D6-1/PEA-15 protein interaction: fluorescence of glutathione Sepharose beads carrying GST-PEA-15; type: binding
T1 construct: made in house
Description: The GST-PEA-15 fusion protein was obtained according to the protocol described by Kitsberg et al. (J. Neurosci, 1999, 19: 8244).
The GST-PEA-15 fusion proteins were recovered after lysis of bacteria and were incubated together with a Sepharose bead covered with glutathione.
The beads thus obtained are incubated in the presence of 1 or 5 μM of 6D6-1, in a 20 mM Tris-HCl, pH 7.4; 100 mM NaCl; 1 mM MgCl2; 1% Triton X-100 buffer).
After a series of three washings, the beads are dried on a cellulose membrane and the fluorescence is quantified by means of a phosphoimager (Biorad), by measuring the fluorescence of the lissamine with excitation at 543 nm and measurement of the emission at 590 nm.
The results are the average of three independent experiences.

GFP-PEA-15 = biological target: T2, GFP-PEA-15 (Mus musculus, UniProt Q62048); experiment: Detection of the interaction of 6D6-1 with GFP-PEA-15 by FRET in 3T3-GFP-PEA-15 cells; type: cell-based; conditions: 6D6-1 tested at 10^-4 M and 10^-5 M, 60 minutes, excitation 465 nm
T2 construct: expressed in transfected cells
Description: The cell line 3T3 expressing the GFP-PEA-15 (3T3-GFP-PEA-15 cell) was obtained as described by FORMSTECHER et al. (Dev. Cell., 2001, 1:239) by transfection of NIH3T3 cells with a EGFP-PEA-15 plasmide obtained as described by KITSBERG et al. (J. Neurosci., 1999, 19: 8244).
Clones resistant to the neomycin (G418) were selected and cultivated in a DMEM (Roche) medium supplemented with 10% of foetal calf serum, 2 mM of glutamine, penicillin (5 IU/ml) and streptomycin ([…]).
The GFP-PEA-15 protein expression was checked by the measurement of the fluorescence of the living cells and a WESTERN transfer analysis with an anti-GFP antibody (Roche, cat. No. 1,814,460 mixture of two monoclonal antibodies obtained from a mouse (clone 7.1 and clone 13.1)) and an anti-PEA-15 (rabbit polyclonal antibody, Sharif et al., Neuroscience, 126: 263, 2004).
The 3T3-GFP-PEA-15 cells are then cultivated up to confluence in a HAM-F12 medium comprising penicillin (10 000 U/ml)/streptomycin (10 000 μg/ml), 7% of foetal calf serum (BIOWHITTAKER) before the fluorescence resonance energy transfer (FRET) experiences. […]
After adding the 6D6-1 compound, the cells are gently agitated (100 rpm) for 60 minutes before the fluorescence read-out, in order to enable the compounds to diffuse and enter into the cells. […]
The GFP protein excited at 465 nm emits a fluorescence signal at 535 nm.

T1 sequence (Q62048 whole entry, the tested form may be a part): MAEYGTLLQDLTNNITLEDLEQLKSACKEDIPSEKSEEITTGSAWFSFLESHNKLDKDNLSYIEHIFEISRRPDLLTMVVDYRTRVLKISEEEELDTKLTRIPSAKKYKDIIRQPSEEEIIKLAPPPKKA
T2 sequence (Q62048 whole entry): as the sequence (Q62048 whole entry, the tested form may be a part) above

**Q.** What does the source list for “1-methyl-piperidin-4-His(Bzl)-Lys(o-Lissamine)-1-methyl-1H-imidazol-4-yl)-acetamide [Compound 6D6-1]”?
**A.** subcellular location of ERK (ERK): relocation of the ERK protein in the core; also recorded: relocation of ERK in the nucleus; subcellular location of PEA-15 (ERK): remains cytoplasmic; average intensity of fluorescence of beads carrying GST-PEA-15 ([1]; 1 or 5 μM 6D6-1, excitation 543 nm, emission 590 nm, average of three independent experiences): depends upon the concentration of the compound; interaction with PEA-15 protein ([1]; general statement of the inventors' observation): able to interact in a specific way with a PEA-15 protein; fluorescence resonance energy transfer (FRET) on binding to GFP-PEA-15, fluorescence signal at 590 nm (GFP-PEA-15): enables a fluorescence resonance energy transfer (FRET)

Reference: US20090170749A1, “Novel Compounds Which Interact With PEA-15” (Institut National De La Sante Et De La Recherche Medicale …, priority 2005, published 2009)
